Read-outs that look alike come from different tables or passages of the source.

Data set [1] relates to P. falciparum 3D7. Kind of data set: In vitro blood antimalarial activity, malaria SYBR green I-based fluorescence (MSF) method. The format is cell-based. Conditions: Plasmodium falciparum; P. falciparum 3D7, blood stage, 48 h, mean ± SD of three biological repeats. The method, then:
P. falciparum strain 3D7 (wild-type drug sensitive strain) was used in this study. This parasite was maintained continuously in vitro in human O+ erythrocytes (4% hematocrit) at 37 °C under 3% CO2 and 90% N2 in RPMI 1640 culture media (Life Technologies Limited, Paisley, UK) containing 2 mM L-Glutamine, 25 mM HEPES (Sigma), pH 7.4, 2g/L NaHCO3, 40 mg/L gentamicin, 0.37 mM hypoxanthine, and supplemented with 5 g/L Albumax I (Life Technologies, Grand Island, NY, USA). Every 3 to 4 days, the parasite culture was synchronized with 5% sorbitol and transferred into complete medium with uninfected erythrocytes. In vitro antimalarial activity was determined by using the malaria SYBR green I-based fluorescence (MSF) method. Briefly, 0.09 mL of cultured 1% ring-stage synchronized parasites and 2% hematocrit were transferred to individual wells of a standard 96-well microtiter plate and in vitro culture continued for 48 h, with 0.01 mL of compound at different concentration in each well. The compounds were first dissolved in DMSO and diluted with RPMI medium to 1% DMSO. The final concentration of DMSO in each well was 0.1%, which caused no effect on the parasite viability. Following 48 h, SYBR Green I solution (0.02 µL of 10,000X SYBR Green I/100 µL of buffer solution consisted of 20 mM Tris 20, pH 7.5, 5 mM EDTA, 0.008% w/v saponin and 0.08% v/v Triton X-100) was then added to each well, and fluorescence signals were measured by spectrofluorometer at ex485/em 535 nm. […] The result of each compound was normalized with control media for the overall background subtraction as 0% and untreated parasite with 0.1% DMSO as 100% control.

The subject of data set [2] is African green monkey kidney fibroblast (Vero cells). Kind of data set: Cytotoxicity by sulforhodamine B (SRB) colorimetric assay. The format is cell-based. Conditions: Vero CC50 / P. falciparum 3D7 IC50. The source says:
(§1) A cytotoxicity test of selected analogs against African green monkey kidney fibroblast (Vero cells) was obtained from Bioassay Laboratory, BIOTEC, NSTDA, Thailand. They were maintained continuously in MEM/EBSS medium (Hyclone Laboratories Inc., South Logan, UT, USA), supplemented with 10% heated fetal bovine serum (GE Healthcare, PAA Laboratories GmbH, Pasching, Austria), 2.2 g/L Sodium bicarbonate (Emsure, Merck kGaA, Darmstadt, Germany), and 1% sodium pyruvate (Sigma). […] Then, the cells were fixed with 100 µL of 10% trichloroacetic acid (Sigma) at 4 °C for 45 min, washed, and dried at room temperature overnight. […] Finally, 200 µL of 10× Tris-base was added to each well to dissolve protein-bound dye. The OD was determined at a wavelength of 510 nm. The control media was used for overall background subtraction as 0% and untreated cells as 100% control without any cytotoxic effect. The IC50 value of each compound was determined from the dose–response curve.

Assay in data set [3]: as above
The format is cell-based, African green monkey. Conditions: African green monkey, Vero cells, 72 h, SRB, mean ± SD of three repeats.
Description: as §1

For data set [4], the system named is hematin polymerization. Kind of data set: Inhibition of hematin polymerization (heme polymerization assay).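 As to %Inh1: test concentrations in µM.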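 As to %Inh2: test concentrations in µM.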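 As to %Inh3: test concentrations in µM.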 The format is biochemical. The method, then: The ability of the 5-phenoxy primaquine analogs to inhibit hematin polymerization was investigated using a protocol modified from the one described previously. […] After it was left standing for 15 min, Tween 20 (0.5 μM; Sigma) was added. […] The assay was performed in triplicate, and results were expressed as the percentage of inhibition relative to hemozoin formation in a negative control. The IC50 values were obtained from the sigmoidal dose–response curves using nonlinear regression curve fitting analyses with GraphPad Prism version 3.00 software. Each IC50 value is the result of at least three separate experiments.

The mark [5] stands for this setting: Vero cells (kidney fibroblasts).
[6] abbreviates: pH 5.0, mean ± SD of three independent repeats, read-out: IC50, inhibition of hemozoin-initiated hematin polymerization.
The mark [7] stands for this setting: primary data, repeat 1, read-out: IC50, heme polymerization inhibition, repeat 1.
The mark [8] stands for this setting: primary data, repeat 2, read-out: IC50, heme polymerization inhibition, repeat 2.
Setting [9] is: primary data, repeat 3, read-out: IC50, heme polymerization inhibition, repeat 3.

Broadly, the IC50 is the concentration at which inhibition is half-maximal. In general, CC50 refers to the concentration that lowers cell viability or growth by half. In the case of `COc1cc(NC(C)CCCN)c2ncccc2c1Oc1ccccc1` (stereo not drawn) [7a, N^4-(6-Methoxy-5-phenoxyquinolin-8-yl)pentane-1,4-diamine], the IC50 in data set [1] was 3.65 ± 0.39 µM; in data set [4] (setting [6]), 102 ± 4.1 µM; in data set [4] (setting [7]) it was 105 µM; in data set [4] (setting [8]), 96 µM; in data set [4] (setting [9]), 104 µM. For the same molecule, the “SI, selectivity index = CC50 on Vero cells / IC50 in the blood stage” value in data set [2] amounted to 10.27. Moreover, in data set [3] (setting [5]), the CC50 at 72 h was 37.5 ± 5.24 µM. Further, the “%Inh1” value in data set [4] (conc 2, repeat 1) is 0.76%; in data set [4] (conc 10, repeat 1) it was 4.28%; in data set [4] (conc 50, repeat 1), 19.81%; in data set [4] (conc 100, repeat 1), 50.68%; in data set [4] (conc 200, repeat 1), 89.17%; in data set [4] (conc 400, repeat 1), 101.81%. In addition, the “%Inh2” value in data set [4] (conc 2, repeat 2) was 8.32%; in data set [4] (conc 10, repeat 2), 12.65%; in data set [4] (conc 50, repeat 2) it was 31.60%; in data set [4] (conc 100, repeat 2), 59.92%; in data set [4] (conc 200, repeat 2), 88.25%; in data set [4] (conc 400, repeat 2), 100.63%. In addition, the “%Inh3” value is given as 5.77% in data set [4] (conc 2, repeat 3); 9.75% in data set [4] (conc 10, repeat 3); 24.35% in data set [4] (conc 50, repeat 3); 49.55% in data set [4] (conc 100, repeat 3); 88.23% in data set [4] (conc 200, repeat 3); 95.73% in data set [4] (conc 400, repeat 3).

In the case of `COc1ccc(Oc2c(OC)cc(NC(C)CCCN)c3ncccc23)cc1` (stereo not drawn) [7b, N^4-(6-Methoxy-5-(4-methoxyphenoxy)quinolin-8-yl)pentane-1,4-diamine], the IC50 in data set [1] was determined as 7.89 ± 0.5 µM; in data set [4] (setting [6]) it was 160 ± 2.2 µM; in data set [4] (setting [7]), 162 µM; in data set [4] (setting [8]), 160 µM; in data set [4] (setting [9]) it was 157 µM. Moreover, the “SI, selectivity index = CC50 on Vero cells / IC50 in the blood stage” value in data set [2] stood at 7.05. Further, in data set [3] (setting [5]), the CC50 at 72 h was 55.6 ± 4.34 µM. Moreover, the “%Inh1” value in data set [4] (conc 2, repeat 1) amounted to 2.65%; in data set [4] (conc 10, repeat 1), 5.02%; in data set [4] (conc 50, repeat 1), 15.24%; in data set [4] (conc 100, repeat 1), 40.12%; in data set [4] (conc 200, repeat 1) it was 67.25%; in data set [4] (conc 400, repeat 1), 94.57%. Also, the “%Inh2” value in data set [4] (conc 2, repeat 2) was 5.23%; in data set [4] (conc 10, repeat 2) it was 7.53%; in data set [4] (conc 50, repeat 2), 19.36%; in data set [4] (conc 100, repeat 2), 39.30%; in data set [4] (conc 200, repeat 2), 67.23%; in data set [4] (conc 400, repeat 2) it was 90.75%. Also, the “%Inh3” value turned out to be 1.85% in data set [4] (conc 2, repeat 3); 11.84% in data set [4] (conc 10, repeat 3); 16.35% in data set [4] (conc 50, repeat 3); 42.63% in data set [4] (conc 100, repeat 3); 71.49% in data set [4] (conc 200, repeat 3); 98.34% in data set [4] (conc 400, repeat 3).

For `COc1cc(NC(C)CCCN)c2ncccc2c1Oc1ccc(Br)cc1` (stereo not drawn) [7c, N^4-(5-(4-Bromophenoxy)-6-methoxyquinolin-8-yl) pentane-1,4-diamine], the IC50 worked out at 7.03 ± 1.31 µM in data set [1]; 175 ± 4.3 µM in data set [4] (setting [6]); 170 µM in data set [4] (setting [7]); 181 µM in data set [4] (setting [8]); 175 µM in data set [4] (setting [9]). Further, the “SI, selectivity index = CC50 on Vero cells / IC50 in the blood stage” value in data set [2] was found to be 6.00. The molecule also showed a CC50 at 72 h in data set [3] (setting [5]) of 42.2 ± 3.25 µM. For the same molecule, the “%Inh1” value in data set [4] (conc 2, repeat 1) is recorded as 7.63%; in data set [4] (conc 10, repeat 1) it was 8.52%; in data set [4] (conc 50, repeat 1) it was 12.67%; in data set [4] (conc 100, repeat 1) it was 31.46%; in data set [4] (conc 200, repeat 1) it was 63.35%; in data set [4] (conc 400, repeat 1), 90.44%. Besides, the “%Inh2” value in data set [4] (conc 2, repeat 2) is given as 6.63%; in data set [4] (conc 10, repeat 2) it was 5.82%; in data set [4] (conc 50, repeat 2), 18.23%; in data set [4] (conc 100, repeat 2), 32.12%; in data set [4] (conc 200, repeat 2) it was 63.64%; in data set [4] (conc 400, repeat 2) it was 88.93%. The “%Inh3” value in data set [4] (conc 2, repeat 3) came to 1.36%; in data set [4] (conc 10, repeat 3), 7.32%; in data set [4] (conc 50, repeat 3), 10.74%; in data set [4] (conc 100, repeat 3), 38.23%; in data set [4] (conc 200, repeat 3), 61.57%; in data set [4] (conc 400, repeat 3), 90.95%.

Turning to `COc1cc(NC(C)CCCN)c2ncccc2c1Oc1ccc(Cl)cc1` (stereo not drawn) [7d, N^4-(6-Methoxy-5-(4-chlorophenoxy)quinolin-8-yl)pentane-1,4-diamine], the IC50 in data set [1] is 8.2 ± 0.83 µM; in data set [4] (setting [6]), 132 ± 5.3 µM; in data set [4] (setting [7]) it was 135 µM; in data set [4] (setting [8]) it was 125 µM; in data set [4] (setting [9]), 137 µM. In data set [2], the “SI, selectivity index = CC50 on Vero cells / IC50 in the blood stage” value is listed as 5.66. This molecule also showed a CC50 at 72 h in data set [3] (setting [5]) of 46.4 ± 5.68 µM. For the same molecule, the “%Inh1” value was 7.78% in data set [4] (conc 2, repeat 1); 12.08% in data set [4] (conc 10, repeat 1); 28.15% in data set [4] (conc 50, repeat 1); 39.02% in data set [4] (conc 100, repeat 1); 81.92% in data set [4] (conc 200, repeat 1); 96.57% in data set [4] (conc 400, repeat 1). Moreover, the “%Inh2” value in data set [4] (conc 2, repeat 2) amounted to 6.26%; in data set [4] (conc 10, repeat 2), 17.37%; in data set [4] (conc 50, repeat 2) it was 20.53%; in data set [4] (conc 100, repeat 2) it was 49.70%; in data set [4] (conc 200, repeat 2) it was 79.27%; in data set [4] (conc 400, repeat 2), 99.33%. The “%Inh3” value in data set [4] (conc 2, repeat 3) was determined as 2.78%; in data set [4] (conc 10, repeat 3), 9.55%; in data set [4] (conc 50, repeat 3) it was 25.95%; in data set [4] (conc 100, repeat 3), 40.32%; in data set [4] (conc 200, repeat 3), 75.78%; in data set [4] (conc 400, repeat 3) it was 91.32%.

As for `CCN(CC)CCCC(C)Nc1ccnc2cc(Cl)ccc12` (stereo not drawn) [CQ, chloroquine, reference compound], the “%Inh1” value in data set [4] (conc 2, repeat 1) was 14.98%; in data set [4] (conc 10, repeat 1), 19.21%; in data set [4] (conc 50, repeat 1), 49.80%; in data set [4] (conc 100, repeat 1), 84.80%; in data set [4] (conc 200, repeat 1), 96.36%; in data set [4] (conc 400, repeat 1), 105.70%. The “%Inh2” value in data set [4] (conc 2, repeat 2) turned out to be 12.22%; in data set [4] (conc 10, repeat 2), 27.67%; in data set [4] (conc 50, repeat 2), 36.78%; in data set [4] (conc 100, repeat 2) it was 81.20%; in data set [4] (conc 200, repeat 2) it was 72.73%; in data set [4] (conc 400, repeat 2), 94.31%. Also, the “%Inh3” value amounted to 11.21% in data set [4] (conc 2, repeat 3); 27.09% in data set [4] (conc 10, repeat 3); 59.78% in data set [4] (conc 50, repeat 3); 70.36% in data set [4] (conc 100, repeat 3); 85.74% in data set [4] (conc 200, repeat 3); 97.41% in data set [4] (conc 400, repeat 3). Moreover, the IC50 in data set [4] (setting [6]) was determined as 61.2 ± 1.3 µM; in data set [4] (setting [7]), 61.3 µM; in data set [4] (setting [8]), 59.6 µM; in data set [4] (setting [9]) it was 62.8 µM.

Regarding `Cc1c2ccncc2c(C)c2c1[nH]c1ccccc12` [EPT, ellipticine, reference compound], in data set [3], the CC50 at 72 h is 5.97 ± 0.14 µM.

These data come from article PMC8272044, “5-Phenoxy Primaquine Analogs and the Tetraoxane Hybrid as Antimalarial Agents” (Molecules, 2021).
